Assays:
Assay type in all cases: in vivo, mongrel adult dogs
[1] = system: arterial mean blood pressure; assay: Effects on arterial mean blood pressure
Procedure, shortened: (§1)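 Readouts: aortic pressure by transducer through carotid cannula, aortic root flow electromagnetically, coronary sinus flow and oxygen tension through Morawitz cannulation. Subjects were anesthetized (pentobarbital) open-chest adult mongrel dogs of either sex given intravenous test compound or active placebo.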

aortic blood flow = assay: Effects on aortic blood flow
Procedure, shortened: as §1

coronary sinus out flow = assay: Effects on coronary sinus out flow
Procedure, shortened: as §1

[2] = system: coronary sinus oxygen tension; assay: Effects on coronary sinus oxygen tension
Procedure, shortened: as §1

heart rate = assay: Effects on heart rate
Procedure, shortened: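 Adult mongrel dogs of both sexes were anesthetized with pentobarbital and thoracotomized. Test agents, suspended or dissolved in 0.2% CMC, pH 6 HCl solution or saline, were injected intravenously into the brachial vein. Hemodynamic and coronary sinus parameters were then recorded.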

Structure (SMILES): COc1ccc(C(C#N)N2CCNCC2)cc1OC (stereo not shown) [Compound F]
- Changes (%) of basal values, arterial mean blood pressure ([1]; 2.0 mg/kg i.v., 1 min): -1.3%
- Changes (%) of basal values, arterial mean blood pressure ([1]; 2.0 mg/kg i.v., 5 min): -4.9%
- Changes (%) of basal values, arterial mean blood pressure ([1]; 2.0 mg/kg i.v., 10 min): -3.3%
- Changes (%) of basal values, arterial mean blood pressure ([1]; 2.0 mg/kg i.v., 20 min): -2.1%
- Changes (%) of basal values, arterial mean blood pressure ([1]; 2.0 mg/kg i.v., 30 min): -0.4%
- Changes (%) of basal values, arterial mean blood pressure ([1]; 2.0 mg/kg i.v., 40 min): 0%
- Changes (%) of basal values, arterial mean blood pressure ([1]; 2.0 mg/kg i.v., imm.): +2.3%
- Changes (%) of basal values, arterial mean blood pressure ([1]; 6.0 mg/kg i.v., 1 min): +15.8%
- Changes (%) of basal values, arterial mean blood pressure ([1]; 6.0 mg/kg i.v., 5 min): -9.3%
- Changes (%) of basal values, arterial mean blood pressure ([1]; 6.0 mg/kg i.v., 10 min): -12.5%
- Changes (%) of basal values, arterial mean blood pressure ([1]; 6.0 mg/kg i.v., 20 min): -10.0%
- Changes (%) of basal values, arterial mean blood pressure ([1]; 6.0 mg/kg i.v., 30 min): -5.2%
- Changes (%) of basal values, arterial mean blood pressure ([1]; 6.0 mg/kg i.v., 40 min): -2.8%
- Changes (%) of basal values, arterial mean blood pressure ([1]; 6.0 mg/kg i.v., imm.): +16.0%
- Effects on arterial mean blood pressure (in words) ([1]; i.v., anesthetized dogs): an increase in blood pressure was observed immediately after administration, but thereafter, a long duration hypotensive effect was observed
- Changes (%) of basal values, aortic blood flow (aortic blood flow; 2.0 mg/kg i.v., 1 min): +0.7%
- Changes (%) of basal values, aortic blood flow (aortic blood flow; 2.0 mg/kg i.v., 5 min): -4.1%
- Changes (%) of basal values, aortic blood flow (aortic blood flow; 2.0 mg/kg i.v., 10 min): -1.2%
- Changes (%) of basal values, aortic blood flow (aortic blood flow; 2.0 mg/kg i.v., 20 min): 0%
- Changes (%) of basal values, aortic blood flow (aortic blood flow; 2.0 mg/kg i.v., 30 min): 0%
- Changes (%) of basal values, aortic blood flow (aortic blood flow; 2.0 mg/kg i.v., 40 min): 0%
- Changes (%) of basal values, aortic blood flow (aortic blood flow; 2.0 mg/kg i.v., imm.): +9.2%
- Changes (%) of basal values, aortic blood flow (aortic blood flow; 6.0 mg/kg i.v., 1 min): +12.1%
- Changes (%) of basal values, aortic blood flow (aortic blood flow; 6.0 mg/kg i.v., 5 min): -2.2%
- Changes (%) of basal values, aortic blood flow (aortic blood flow; 6.0 mg/kg i.v., 10 min): -2.0%
- Changes (%) of basal values, aortic blood flow (aortic blood flow; 6.0 mg/kg i.v., 20 min): -1.2%
- Changes (%) of basal values, aortic blood flow (aortic blood flow; 6.0 mg/kg i.v., 30 min): 0%
- Changes (%) of basal values, aortic blood flow (aortic blood flow; 6.0 mg/kg i.v., 40 min): 0%
- Changes (%) of basal values, aortic blood flow (aortic blood flow; 6.0 mg/kg i.v., imm.): +20.5%
- Effects on aortic blood flow (in words) (aortic blood flow; i.v., anesthetized dogs): an increase in blood flow immediately after administration, followed by a decrease in blood flow
- Changes(%) of basal values, coronary sinus out flow (coronary sinus out flow; 2.0 mg/kg i.v., 1 min): +2.9%
- Changes(%) of basal values, coronary sinus out flow (coronary sinus out flow; 2.0 mg/kg i.v., 5 min): -1.7%
- Changes(%) of basal values, coronary sinus out flow (coronary sinus out flow; 2.0 mg/kg i.v., 10 min): -4.4%
- Changes(%) of basal values, coronary sinus out flow (coronary sinus out flow; 2.0 mg/kg i.v., 20 min): -3.1%
- Changes(%) of basal values, coronary sinus out flow (coronary sinus out flow; 2.0 mg/kg i.v., 30 min): -1.0%
- Changes(%) of basal values, coronary sinus out flow (coronary sinus out flow; 2.0 mg/kg i.v., 40 min): -0.2%
- Changes(%) of basal values, coronary sinus out flow (coronary sinus out flow; 2.0 mg/kg i.v., imm.): +12.4%
- Changes(%) of basal values, coronary sinus out flow (coronary sinus out flow; 6.0 mg/kg i.v., 1 min): +68.6%
- Changes(%) of basal values, coronary sinus out flow (coronary sinus out flow; 6.0 mg/kg i.v., 5 min): +7.4%
- Changes(%) of basal values, coronary sinus out flow (coronary sinus out flow; 6.0 mg/kg i.v., 10 min): +0.1%
- Changes(%) of basal values, coronary sinus out flow (coronary sinus out flow; 6.0 mg/kg i.v., 20 min): -8.2%
- Changes(%) of basal values, coronary sinus out flow (coronary sinus out flow; 6.0 mg/kg i.v., 30 min): -5.3%
- Changes(%) of basal values, coronary sinus out flow (coronary sinus out flow; 6.0 mg/kg i.v., 40 min): -2.1%
- Changes(%) of basal values, coronary sinus out flow (coronary sinus out flow; 6.0 mg/kg i.v., imm.): +74.5%
- Effects on coronary sinus out flow (in words) (coronary sinus out flow; i.v., anesthetized dogs): increased markedly coronary sinus out flow immediately after administration, effect of which was, however, relatively transitory
- Changes(%) of basal values, coronary sinus oxygen tension ([2]; 2.0 mg/kg i.v., 1 min): +1.4%
- Changes(%) of basal values, coronary sinus oxygen tension ([2]; 2.0 mg/kg i.v., 5 min): -1.1%
- Changes(%) of basal values, coronary sinus oxygen tension ([2]; 2.0 mg/kg i.v., 10 min): -1.4%
- Changes(%) of basal values, coronary sinus oxygen tension ([2]; 2.0 mg/kg i.v., 20 min): -0.8%
- Changes(%) of basal values, coronary sinus oxygen tension ([2]; 2.0 mg/kg i.v., 30 min): 0%
- Changes(%) of basal values, coronary sinus oxygen tension ([2]; 2.0 mg/kg i.v., 40 min): 0%
- Changes(%) of basal values, coronary sinus oxygen tension ([2]; 2.0 mg/kg i.v., imm.): +10.9%
- Changes(%) of basal values, coronary sinus oxygen tension ([2]; 6.0 mg/kg i.v., 1 min): +20.3%
- Changes(%) of basal values, coronary sinus oxygen tension ([2]; 6.0 mg/kg i.v., 5 min): +3.9%
- Changes(%) of basal values, coronary sinus oxygen tension ([2]; 6.0 mg/kg i.v., 10 min): +1.0%
- Changes(%) of basal values, coronary sinus oxygen tension ([2]; 6.0 mg/kg i.v., 20 min): -4.1%
- Changes(%) of basal values, coronary sinus oxygen tension ([2]; 6.0 mg/kg i.v., 30 min): -1.2%
- Changes(%) of basal values, coronary sinus oxygen tension ([2]; 6.0 mg/kg i.v., 40 min): -0.3%
- Changes(%) of basal values, coronary sinus oxygen tension ([2]; 6.0 mg/kg i.v., imm.): +20.1%
- Effects on coronary sinus oxygen tension (in words) ([2]; i.v., anesthetized dogs): slightly transitory as compared with those of compounds as mentioned above
- increased oxygen tension ([2]; i.v., anesthetized dogs): about 20%
- Changes(%) of basal values, heart rate (heart rate; 2.0 mg/kg i.v., 1 min): +2.6%
- Changes(%) of basal values, heart rate (heart rate; 2.0 mg/kg i.v., 5 min): -1.5%
- Changes(%) of basal values, heart rate (heart rate; 2.0 mg/kg i.v., 10 min): -2.3%
- Changes(%) of basal values, heart rate (heart rate; 2.0 mg/kg i.v., 20 min): -1.8%
- Changes(%) of basal values, heart rate (heart rate; 2.0 mg/kg i.v., 30 min): -0.7%
- Changes(%) of basal values, heart rate (heart rate; 2.0 mg/kg i.v., 40 min): 0%
- Changes(%) of basal values, heart rate (heart rate; 2.0 mg/kg i.v., imm.): +1.4%
- Changes(%) of basal values, heart rate (heart rate; 6.0 mg/kg i.v., 1 min): +3.7%
- Changes(%) of basal values, heart rate (heart rate; 6.0 mg/kg i.v., 5 min): -2.2%
- Changes(%) of basal values, heart rate (heart rate; 6.0 mg/kg i.v., 10 min): -3.6%
- Changes(%) of basal values, heart rate (heart rate; 6.0 mg/kg i.v., 20 min): -3.3%
- Changes(%) of basal values, heart rate (heart rate; 6.0 mg/kg i.v., 30 min): -2.0%
- Changes(%) of basal values, heart rate (heart rate; 6.0 mg/kg i.v., 40 min): -1.4%
- Changes(%) of basal values, heart rate (heart rate; 6.0 mg/kg i.v., imm.): -7.2%
- Effects on heart rate (in words) (heart rate; i.v., anesthetized dogs): slight negative chronotropic effects accompanied by an increase in heart rate immediately after administration

Reference: US4068070A, “α-Cyanoamine compounds and a process for producing the same” (Fuji Chemical Industry Co., Ltd., priority 1974, dated 1978)
